Assay results from a melting point compilation (Tetko et al.; mined from patent text by program, amines drawn as free bases though some values may be those of a salt).

Structure (SMILES)	melting point [°C]
CCOC(=O)c1ccc2nc3n(c(=O)c2c1)CCC3=Cc1ccccc1C	184 to 185
CN(O)C(=O)CCc1cc(-c2ccc(Cl)cc2)n(-c2ccccc2)n1	155 to 156
Cc1cccc(-c2nc3cccnn3c2-c2ccnc(NC(=O)C3CC3)c2)c1	203 to 204
Cc1cc(C)c2ncc(N)c(-c3ccccc3Cl)c2c1	152 to 154
CCCS(=O)(=O)Nc1ccc(C(=O)CC#N)cc1	150 to 151
CNC(=O)NCCn1c(-c2ccc(CCN3CCOCC3)cc2)csc1=Nc1ccc(F)c(C)c1	167 to 171
CCCN(Cc1ccc(-c2ccccc2-c2nc(=O)o[nH]2)cc1)c1nc(C)ncc1C(=O)O	182 to 186
CNc1cc(OC)c(C(=O)NC2CCN(Cc3ccccc3)C2)cc1Cl (stereo unspecified)	101 to 102
COC(=O)[C@H](Cc1c[nH]cn1)NC(=O)[C@H](Cc1ccccc1)NC(=O)[C@H](Cc1ccccc1)NC(=O)C(C)(C)C	128 to 131
Cc1ccc(NC(=O)C(C)(C)C)c(-c2ccnc(OCC(F)(F)F)n2)c1	126 to 128
CCCc1nc2c(N)nc3cccnc3c2s1	135 to 136
C=CCc1c(O)cc(OC)c2c(C)cc(=O)oc12	198
CC(C)(N)c1ccc(-c2nc(Nc3ccc(CCn4ccnc4)cc3)ncc2C#N)cc1	184
CC(N)(C(N)=O)C(F)(F)F (stereo unspecified)	84 to 85
COc1ccc(C2(c3ccc(OC)cc3)CCN(C[C@@H]3C=C4c5cccc6[nH]c(Cl)c(c56)C[C@H]4N(C)C3)CC2)cc1	> 204
CC(C)(C)c1cc(NC(=O)NCCc2ccc([N+](=O)[O-])cc2)cc(C(C)(C)C)c1O	185 to 187
O=C(Nc1ccccc1S(=O)(=O)NCCCn1ccnc1)c1cccc(C(F)(F)F)c1	145 to 147
CCN(CC)CCOc1cccc2c1c1cccc(Cl)c1n2Cc1ccccc1	73.5 to 75
CCOc1c(C)cc2c(c1C)C1(C)Cc3ccccc3C1=N2 (stereo unspecified)	164
CS(=O)(=O)c1ccc(-c2nn3cc(C(F)(F)F)oc3c2-c2ccc(F)cc2)cc1	186 to 189
CC(Cn1ccnn1)n1nnc2cc3c(=O)n(C(C)Cn4ccnn4)nnc3cc2c1=O (stereo unspecified)	192 to 195
C=CCn1ccc(=O)[nH]c1=O	108 to 109
COc1ccc(Nc2cc(C)nc(N)n2)cc1Cl	250
CCc1c(-c2ccc(OCc3ccccc3)cc2)c2ccc3c(N)ccc1n32	123 to 127
CCCCCCC(=N)NC(=S)Nc1ccc(Cl)c([N+](=O)[O-])c1	92 to 94
CCCCCc1cccc2c1C(=O)N(OC1C(CO)OC(n3cnc4c(N)ncnc43)C1O)C2=O (stereo unspecified)	159 to 160

Structure (SMILES)	melting point [°C]
Cc1nc2c(Cl)cccc2c(=O)n1C1CCC(=O)NC1=O (stereo unspecified)	290 to 292
CNC(=O)Nc1cccc(C2=NC(C)(C)Cc3cc(OC)c4c(c32)CC(C)(C)O4)c1	125 to 127
C=C(C)C(=O)OCCOCCOC(=O)c1ccc(O)c(Cl)c1	57 to 58.5
Cc1cc(NS(=O)(=O)c2ccccc2)cc(C)c1S(=O)C[N+](=O)[O-] (stereo unspecified)	> 50
CCCCC(=O)Nc1ccccc1C(F)(F)F	63
NC(=O)N1C(=O)C(C(=O)c2ccccc2)c2nc(Cl)ccc21 (stereo unspecified)	220
Nc1nc(N)nc(C2(c3ccccc3)CCCCC2)n1	153 to 155
O=[N+]([O-])c1ccc2c(ccn2CCCCl)c1	74 to 76
O=C(O)CCCCCc1nn(-c2ccc(F)cc2)c2c1CCCC2	95 to 96
CCOP(=O)(OCC)C1CCc2c([N+](=O)[O-])c(C(F)(F)F)cc3[nH]c(=O)c(=O)n1c23 (stereo unspecified)	254
OC1(c2cnccn2)CN2CCC1C2 (stereo unspecified)	180 to 183
CCS(=O)C1CCC2C3CCC4=CC(=O)C=CC4(C)C3(F)C(O)CC21C (stereo unspecified)	247 to 250
COc1ncnc2ccsc12	92 to 94
C#Cc1cc2ccccc2[nH]1	64 to 65
Cn1ccc2c3c(C=O)c4ccccc4cc3ccc21	175 to 176
CC(C)(C)NCC(O)c1cc(Cl)c(N)c(C#N)c1 (stereo unspecified)	125 to 133
Cc1ccc(NS(=O)(=O)c2ccc(N3CCNC3=O)cc2)cc1C	206 to 208
CC(=O)Nc1ccc2c(c1)[nH]c(=O)c(=O)n2C	390
CCOC(=O)Cc1ccc(NC(=O)C(CO)NS(=O)(=O)c2ccc(Br)cc2)cc1 (racemic)	149 to 150
O=C(CCl)Nc1ccc2c(c1NC(=O)C1CC1)C(=O)c1ccccc1C2=O	191 to 192
Nc1ccnc(CCCCN2C(=O)c3ccccc3C2=O)n1	139 to 140
O=C1Nc2cc(Cl)ccc2C(=O)C1c1csc2ccccc12 (stereo unspecified)	320
C/C=C\NC(=O)c1c(Cl)cccc1[Si](C)(C)C	101 to 102
CCCc1c(OCCCCCCc2ccc(CCCCC(=O)O)c(CCC(=O)O)c2)ccc2c1OCCC2=O	108 to 109
O=C(CCCl)c1ccc2c(c1)Cc1cc(C(=O)CCCl)ccc1O2	180 to 181
Cn1cnc2ccc(-c3nnc(SCc4cccc(C(F)(F)F)c4)o3)cc21	126 to 127

Structure (SMILES)	melting point [°C]
CCOC(=O)Cc1cccc2c(-c3ccccc3)nccc12	141
CON=C(Cl)c1ccccc1S(N)(=O)=O	155 to 158
CC1=C(C)C(=O)C(CCCCCC2=C(C)C(=O)C(C)=C(C)C2=O)=C(C)C1=O	138
COc1ccc(S(=O)(=O)N2C(=O)C(N)(c3ccccc3)c3cc(Cl)ccc32)c(OC)c1 (stereo unspecified)	108 to 110
CN(C)S(=O)(=O)c1cnc(NC(=O)[C@H](CC2CCCC2)c2ccc(S(C)(=O)=O)c(Cl)c2)cn1	100
O=C1NC(=O)C(Cc2ccc(N3CCC(NC[C@H](O)COc4cccnc4)CC3)cc2)S1 (stereo partly specified)	130 to 132
COC(=O)N(Cc1nc(-c2ccccc2)c(-c2ccccc2)o1)c1cccc(OCC(=O)O)c1	153 to 155
C[C@H](Cc1cc2c(c(C(N)=O)c1)N(CCCCO)CC2)NCCOc1ccccc1OCC(F)(F)F	116 to 118
O=C1c2ccccc2C(=O)N1c1cc(Cl)c(OC(F)(F)C(F)(F)Br)c(Cl)c1	62 to 63.5
COC(=O)Nc1nc2ccccc2n1-c1nc(N2CCOCC2)nc(N2CCOCC2)n1	206 to 209
CC(C)(C)c1nnc(-c2ccccn2)[nH]c1=O	114 to 115
C=CC(=O)N1CCSc2ccc(OC)cc2C1	79 to 81
COC(=O)c1ccc(O)cc1NC(=O)c1cccc2ccccc12	246 to 248
Cc1csc(=Nc2ccc(C(C)C(=O)O)c(Cl)c2)n1C (stereo unspecified)	132 to 133
COC(=O)c1ncoc1C	46.5 to 47
Cn1c(-c2ccccc2)c(C(=O)CCn2ccnc2)c2ccccc21	159 to 162
CC(Cc1c[nH]c2ccccc12)(NC(=O)OC1C2CC3CC(C2)CC1C3)C(=O)NC(CC(=O)O)Cc1ccccc1 (stereo unspecified)	123 to 137
Cc1cc(SCC(=O)NCCc2ccccc2)nc(N)n1	114 to 121
O=C(/C=C/c1ccc([N+](=O)[O-])cc1)c1cc2ccccc2oc1=O	272 to 274
Cc1[nH]c(C#N)c(C)c1-c1ccnc(Nc2cccc([N+](=O)[O-])c2)n1	258 to 259
COC(=O)c1ccnc(N2CCN(Cc3cccnc3)C2=O)c1	165 to 167
CCc1c(C)n(C)c(=O)n(-c2cc(OC(C)C)c(Cl)cc2F)c1=O	124 to 125
CN(C)c1ccc(NS(=O)(=O)c2cccc(-c3ccc(F)cc3)c2)cc1	158 to 160
CCC1c2ccccc2-c2ccccc21	152 to 154
CN1CCC(N2CCN(c3cccc(-c4cn[nH]c4N)c3)CC2)CC1	213 to 220
CCOC(=O)c1cccc(-c2cccc3cc(CBr)sc23)c1	96 to 97

Structure (SMILES)	melting point [°C]
CCOc1nn(C(=O)NS(=O)(=O)Cl)c(=O)n1C	106
CC(C)(C)OC(=O)NCCCCCCNS(=O)(=O)c1ccc(Oc2ccccc2)cc1	77 to 78
CON=C1COc2cc(OCc3ccccc3N(OC)C(=O)OC)ccc21	102 to 103
Cc1ccccc1NC(=O)CN1C(=O)c2ccccc2C1=O	254
CNC1=Nc2ccc([N+](=O)[O-])cc2C(c2ccccc2Cl)=NC1	219 to 221
NC1c2ccccc2-c2[nH]c(=O)c3nccn3c21 (stereo unspecified)	240
OCCn1cc(Br)c(Br)n1	64 to 66
CSCCC1NCCNC1=O (stereo unspecified)	68 to 70
CC(C)Nc1cccc2c1C(=O)c1cccc(NC(C)C)c1C2=O	170 to 172
CCCCc1nc2ccccc2n1Cc1ccc(-c2ccccc2C=O)cc1	117 to 118
Cn1cc(CS(C)(=O)=O)c(=O)c2ccc(Cl)cc21	215 to 216
CCOCc1nc2c(N)nc3ccccc3c2n1CCCC(C)=O	173 to 175
Cc1c(O)cccc1C1=N[C@H]([C@H](O)CN2C[C@H]3CCCC[C@H]3C[C@H]2C(=O)NC(C)(C)C)CO1	240
COc1ccc(C(F)(F)F)cc1NC(=N)Nc1cccc(C(F)(F)F)c1	45 to 47
COc1ccc(Cc2oc3cccc(O)c3c2C)cc1	130 to 133
Cc1ccc(C2CCCN2S(=O)(=O)c2ccc(C)cc2)cc1 (racemic)	124
CCOC(=O)c1c(C(C)C)nc(C(C)C)c(C(=O)OCC)c1-c1ccc(OCc2ccccc2)cc1	87
O=C(O)[C@@]1(c2ccc3ccccc3c2)CC1(c1ccccc1)c1ccccc1	195 to 196
O=[N+]([O-])c1ccccc1C(O)c1cc2c(Oc3ccc(Cl)cc3)cncc2s1 (stereo unspecified)	85 to 90
CCOC(=O)c1cnn(-c2ccccc2N)c1O	151 to 154
CCCCN=C(O)c1c(Sc2ccc([N+](=O)[O-])cc2)c(Sc2ccccc2)c(Sc2ccccc2)c(Sc2ccc([N+](=O)[O-])cc2)c1C(=O)O	175 to 177
CCCCOc1c(NCc2ccc(C#N)cc2Cl)c(=O)c1=O	148 to 149
COC(=O)C(Oc1ccc([N+](=O)[O-])cc1)C(C)=O (stereo unspecified)	87.5 to 88
